Source: PubChem BioAssay (NCI)
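Grown in 96-well plates, cells were treated for 48 hours with each compound at five concentrations. Insufficient inhibition: endpoint recorded as highest concentration tested. GI50 = concentration required for 50% inhibition of growth. TGI marks complete inhibition of growth.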

Assays:
Assay in all cases: DTP human tumour cell line panel, 48 h
786-0 renal = system: 786-0 renal
RXF 393 renal = system: RXF 393 renal
SNB-19 CNS = system: SNB-19 CNS
TK-10 renal = system: TK-10 renal
DU-145 prostate = system: DU-145 prostate
OVCAR-8 ovarian = system: OVCAR-8 ovarian
MCF7 breast = system: MCF7 breast
SF-268 CNS = system: SF-268 CNS
A549 NSCLC = system: A549 NSCLC
COLO 205 colon = system: COLO 205 colon

SMILES	GI50 (786-0 renal)	TGI (786-0 renal)	GI50 (RXF 393 renal)	TGI (RXF 393 renal)	GI50 (SNB-19 CNS)	TGI (SNB-19 CNS)	GI50 (TK-10 renal)	TGI (TK-10 renal)	GI50 (DU-145 prostate)	TGI (DU-145 prostate)	GI50 (OVCAR-8 ovarian)	TGI (OVCAR-8 ovarian)	GI50 (MCF7 breast)	TGI (MCF7 breast)	GI50 (SF-268 CNS)	TGI (SF-268 CNS)	GI50 (A549 NSCLC)	TGI (A549 NSCLC)	GI50 (COLO 205 colon)	TGI (COLO 205 colon)
C[C@]12CCC(=O)C=C1CC[C@@H]1[C@@H]2CC[C@]2(C)C(=O)/C(=C/c3cccc(OCCN4CCOCC4)c3)C[C@@H]12	12.8 µM	> 100 µM	5.62 µM	20.9 µM	15.8 µM	> 100 µM	17.7 µM	> 100 µM	17.9 µM	51.5 µM	6.28 µM	> 100 µM	9.11 µM	71.7 µM	13.6 µM	76.6 µM	7.17 µM	89.5 µM	5.21 µM	25.5 µM
CC(C)=CCC/C(C)=C/CC/C(=C/COP(=O)(OCc1ccc([N+](=O)[O-])o1)N(C)CCCCCl)C(C)(C)C (centres undefined)	2.53 µM	8.18 µM	7.84 µM	26.5 µM	15.8 µM	33.6 µM	1.72 µM	22.2 µM	1.61 µM	9 µM	10.7 µM	36.1 µM	2.47 µM	18.6 µM	3.69 µM	19.3 µM	10.9 µM	27.5 µM	15.9 µM	53.1 µM
O=C(/C=C\Sc1nccc(C(F)(F)F)n1)c1ccc(Br)cc1	16.3 µM	34.2 µM	18.5 µM	40.9 µM	36.9 µM	> 100 µM	26.4 µM	59.6 µM	17.6 µM	47.9 µM	45.9 µM	> 100 µM	28 µM	84.8 µM	33.2 µM	> 100 µM	> 100 µM	> 100 µM	18.6 µM	36.5 µM
O=C(Cn1ccnc1[N+](=O)[O-])NCC(F)(F)C(F)(F)F	> 100 µM	> 100 µM	> 100 µM	> 100 µM	> 100 µM	> 100 µM	> 100 µM	> 100 µM	> 100 µM	> 100 µM	> 100 µM	> 100 µM	> 100 µM	> 100 µM	> 100 µM	> 100 µM	> 100 µM	> 100 µM	> 100 µM	> 100 µM
CCOC(=O)c1c(Cl)c2c(n1Cc1cc(OC)cc(OC)c1)-c1oncc1CCC2	1.47 µM	> 71.4 µM	0.201 µM	6.03 µM	0.629 µM	> 100 µM	10.3 µM	> 100 µM	0.35 µM	97.7 µM	0.479 µM	> 100 µM	0.168 µM	> 100 µM	1.65 µM	> 100 µM	0.419 µM	> 100 µM	0.301 µM	1.49 µM
CN(C)CC1CCn2c(c(C3=C(c4cn(C)c5ccccc45)C(=O)NC3=O)c3ccccc32)C1 (centres undefined)	4.26 µM	8.17 µM	3.3 µM	6.71 µM	4.84 µM	10.4 µM	3.03 µM	7.27 µM	4.91 µM	10.9 µM	4.62 µM	9.87 µM	4.31 µM	8.03 µM	3.84 µM	7.97 µM	4.5 µM	9.06 µM	3.42 µM	7.51 µM
CN(CCC(=O)O)S(=O)(=O)c1ccccc1	–	> 100 µM	–	> 100 µM	–	> 100 µM	–	> 100 µM	–	> 100 µM	–	> 100 µM	–	> 100 µM	–	> 100 µM	–	> 100 µM	–	> 100 µM
CC(=O)OCC1OC(S[As](C)C)C(OC(C)=O)C1OC(C)=O (centres undefined)	0.176 µM	0.77 µM	0.455 µM	2.31 µM	9.06 µM	29.5 µM	0.231 µM	0.843 µM	0.217 µM	0.836 µM	0.272 µM	1.57 µM	0.304 µM	1.11 µM	1.31 µM	7.53 µM	1.94 µM	13.6 µM	0.176 µM	2.66 µM
CN1CCN(Cc2ccc(Nc3ncc(Cl)c(Nc4ccccc4S(=O)(=O)N(C)C)n3)cc2)CC1	0.0524 µM	1.28 µM	0.033 µM	0.122 µM	0.0529 µM	2.96 µM	0.0819 µM	1.19 µM	0.0516 µM	> 100 µM	0.0738 µM	–	< 0.01 µM	1.17 µM	0.0997 µM	1.02 µM	0.0365 µM	1.7 µM	0.0278 µM	0.222 µM
COc1cccc2c1c1nc3cc(C)c(C)cc3nc1n2CCN(C)C	1.35 µM	5.53 µM	1.59 µM	3.54 µM	2.04 µM	14 µM	2.95 µM	11.5 µM	3.01 µM	12.1 µM	0.798 µM	13.3 µM	2.13 µM	10.9 µM	2.13 µM	7.45 µM	1.99 µM	12 µM	0.767 µM	3.31 µM
COc1ccc(F)cc1C(=O)c1cnc(NC2CCN(S(C)(=O)=O)CC2)nc1N	5.03 µM	> 25 µM	2.75 µM	6.58 µM	1.8 µM	> 25 µM	1.83 µM	14.7 µM	5.52 µM	24.5 µM	3.95 µM	> 21.6 µM	0.18 µM	> 25 µM	4.58 µM	18.1 µM	3.14 µM	> 23.7 µM	1.25 µM	5.22 µM
COc1ccc2c(c1)Cc1c-2c(NN)nc2ccccc12	40.4 µM	> 100 µM	30.5 µM	> 100 µM	31.3 µM	> 100 µM	57.3 µM	> 100 µM	32 µM	> 100 µM	23.8 µM	> 100 µM	5.66 µM	48.5 µM	25.3 µM	> 100 µM	33.6 µM	> 100 µM	22.1 µM	> 100 µM
